Assay results: patent US11110195B2, “Esculentin 1a derivatives and uses thereof” (University of Houston System, priority 2013, dated 2021)
Where two headings read alike, the source gives them in different places. Residues, ends and D or L forms follow the SMILES beside them.

Experiments:
P. aeruginosa R1 biofilm = conditions: 4 μM, 2 hours treatment
Protocol: (§1) Data points are the mean±SEM of three independent experiments. The levels of statistically significant differences between the two peptides are indicated as follows *P<0.05, **P<0.01, ***P<0.001
(§2) The reference strain and the clinical isolates were grown at 37° C. in Luria-Bertani broth (LB) to mid-log phase (optical density of 0.8 at 590 nm). With the help of tweezers, silicone hydrogel narafilcon A soft CL (1-Day ACUVUE TruEye) were removed from the manufacturer's containers, and washed thrice in phosphate buffered saline (PBS). The lenses were then immersed into wells of a 24-multiwell plate, each well containing 1 mL of bacterial inoculum in 1/10 LB at a concentration of 5×10^4 colony-forming units (CFU)/mL. Noteworthy, the number of bacteria isolated from CL storage cases has been reported to range from 1 to 6×10^4 CFU/case (2, 10). Therefore, in order to reproduce a more realistic level of bacteria to which CLs can be exposed, an inoculum size of 5×10^4 CFU/mL was used for biofilm formation.
(§3) The plate was then incubated in a humidified incubator at 37° C. at 125 rpm to allow biofilm formation on the surface of both lens sides. After 20 hours of incubation, each lens was washed thrice with PBS to remove any non-adherent planktonic cells.
(§4) The lenses were then transferred into wells of a new 24-multiwell plate, each well containing serial dilutions of Esc-1a(1-21)NH2 and Esc-1a(1-21)-1cNH2 in PBS. For […] controls, the lenses were immersed in sterile PBS. The new plate was then incubated at 37° C. for 2 hours with gentle shaking (125 rpm). After peptide treatment, each lens was washed thrice in PBS and transferred into wells of another 24-multiwell plate, each well containing 350 μL of 0.5 mg/mL of 3-(4,5-dimethylthiazol-2-yl)-2,5-diphenyltetrazolium bromide (MTT, from Sigma Aldrich, Milan, Italy) in Hank's solution (136 mM NaCl; 0.34 mM Na2HPO4; 0.44 mMKH2PO4; 5.4 mM KCl; 4.1 mM NaHCO3 pH 7.2, supplemented with 5.5 mM D-glucose) as previously reported (8). The killing of biofilms was determined as a function of the inhibition of MTT reduction to insoluble formazan crystals by bacterial reductases. The plate was incubated again for 2 hours (125 rpm) at 37° C. Formazan crystals were solubilized by the addition of acidified isopropanol. During overnight incubation at room temperature the resulting purple color was absorbed by the lens. Afterward, each lens was soaked in absolute ethanol (500 μL in each well) to decolor it. Aliquots of 100 μL were finally transferred to the wells of a 96-multiwell plate and absorbance was measured at 590 nm using a microplate reader (Infine M 200, Tecan). Untreated bacterial cells in PBS were the control. Percentage of killing was calculated according to the formula: [1−(Abs of treated samples−Abs of blank/Abs of control samples-Abs of blank)][…], where the blank was the solvent PBS.

[1] = system: P. aeruginosa ATCC 27853 biofilm; conditions: 2 hours treatment
Protocol: as §1, §2, §3, §4

[2] = system: human telomerase immortalized corneal epithelial cells (hTCEpi); assay: Wound healing (cell migration) assay, corneal epithelial cells; format: cell-based; conditions: hTCEpi monolayer
Protocol: The percentage of cell-covered area at each time point was determined and is reported on the y-axis. Control (Ctrl) represents cells not treated with the peptide. All data are the mean of at least three independent experiments ±SE.
To determine cell migration after treatment with Esc-1a(1-21)NH2, a wound healing assay was performed using human telomerase immortalized corneal epithelial cells (hTCEpi) (FIG. 9). Cells were cultured in Keratinocyte growth Medium-2 supplemented with growth factors and Normocin […] (KGM-2g). Cell migration was studied as follows: hTCEpi cells (70,000) suspended in KGM-2g were seeded on each side of ibidi culture inserts for live cell analysis (Ibidi, Munich, Germany). Inserts were placed into 35 mm dishes and incubated at 37° C. and 5% CO2 to allow cells grow to confluence. Afterwards, inserts were removed with sterile tweezers to create a cell-free area (“wound”) of approximately 500 μm; after a wash with 1 ml of PBS, 1 ml of Dulbecco's modified Eagle's medium (DMEM) supplemented with 4 mM L-glutamine, 5% fetal bovine serum (FBS) and the peptide at different concentrations was added. The dishes with inserts were placed in an appropriate incubator and the cells were allowed to migrate. […] The percentage of cell-covered area at each time was determined by WIMASIS Image Analysis program. […]

SMILES: CC[C@H](C)[C@H](NC(=O)CN)C(=O)N[C@@H](Cc1ccccc1)C(=O)N[C@@H](CO)C(=O)N[C@@H](CCCCN)C(=O)N[C@@H](CC(C)C)C(=O)N[C@@H](C)C(=O)NCC(=O)N[C@@H](CCCCN)C(=O)N[C@@H](CCCCN)C(=O)N[C@H](C(=O)N[C@@H](CCCCN)C(=O)N[C@@H](CC(N)=O)C(=O)N[C@@H](CC(C)C)C(=O)N[C@@H](CC(C)C)C(=O)N[C@H](C(=O)N[C@@H](CO)C(=O)NCC(=O)N[C@@H](CC(C)C)C(=O)N[C@@H](CCCCN)C(=O)NCC(N)=O)[C@@H](C)CC)[C@@H](C)CC [Esc-1a(1-21)NH2] (H-GIFSKLAGKKIKNLLISGLKG-NH2; N-terminus assumed)
- biofilm killing (P. aeruginosa R1 biofilm): 0%
- biofilm killing ([1]; 4 μM): activity was lost
- biofilm killing ([1]; 32 μM): more than 50%
- optimal concentration allowing complete coverage of the wound field [2]: 0.005 µM
- time to maximum cell-covered area after peptide addition [2]: 9 to 12 h
